Data published in ChEMBL document CHEMBL1137823, “Building predictive models for protein tyrosine phosphatase 1B inhibitors based on discriminating structural features by reassembling medicinal chemistry building blocks” (J Med Chem, 2004).
pIC50: −log10 of the molar value.

target: T1, Tyrosine-protein phosphatase non-receptor type 1 (Homo sapiens, UniProt P18031); test: Concentration required for 50% inhibition of tyrosine phosphatase 1B
T1 sequence (P18031 whole entry): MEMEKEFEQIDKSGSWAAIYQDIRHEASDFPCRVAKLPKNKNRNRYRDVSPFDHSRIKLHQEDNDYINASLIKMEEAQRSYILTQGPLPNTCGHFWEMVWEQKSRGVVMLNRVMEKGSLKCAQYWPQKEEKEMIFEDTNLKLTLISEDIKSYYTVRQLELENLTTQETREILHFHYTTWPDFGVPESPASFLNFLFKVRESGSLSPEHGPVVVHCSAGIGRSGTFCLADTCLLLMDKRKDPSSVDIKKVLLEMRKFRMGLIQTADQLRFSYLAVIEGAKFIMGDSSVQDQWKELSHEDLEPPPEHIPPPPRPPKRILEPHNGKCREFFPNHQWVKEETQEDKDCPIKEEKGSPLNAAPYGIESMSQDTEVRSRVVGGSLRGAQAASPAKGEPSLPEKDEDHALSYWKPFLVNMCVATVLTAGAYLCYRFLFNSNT

Row | SMILES | pIC50
1 | O=C(O)c1ccc(S(=O)(=O)Oc2ccc(-c3ccc(-c4c(Cc5ccccc5)oc5ccccc45)cc3)cc2[N+](=O)[O-])cc1O | 7.40
2 | Cc1oc(-c2ccc(C(F)(F)F)cc2)nc1-c1ccc(-c2ccc(O)cc2)cc1 | 7.90
3 | CCc1oc2ccccc2c1-c1ccc(-c2ccc(O)cc2)cc1 | 7.50
4 | CCCC[C@@H](Oc1c(Br)cc(-c2ccc(-c3c(Cc4ccccc4)oc4ccccc34)cc2)cc1Br)C(=O)O | 7.28
5 | CCCCc1oc2ccccc2c1C(=O)c1ccc2cc(O)ccc2c1 | 8.50
6 | Cc1cc(-c2ccc(-c3c(Cc4ccccc4)oc4ccccc34)cc2)cc(C)c1OS(=O)(=O)c1ccc(C(=O)O)c(O)c1 | 7.41
7 | CCCc1cc(-c2ccc(-c3c(Cc4ccccc4)oc4ccccc34)cc2)ccc1O[C@@H](Cc1ccccc1)C(=O)O | 6.08
8 | CCCCc1oc2ccccc2c1-c1ccc(-c2ccc(OC)cc2)cc1 | 6.78
9 | O=C(O)[C@@H](Cc1ccccc1)Oc1c(Br)cc(-c2ccc(-c3c(Cc4ccccc4)oc4ccccc34)cc2)cc1Br | 7.42
10 | O=C(O)C(Cc1ccccc1)Oc1ccc(-c2ccc(-c3coc4ccccc34)cc2)cc1 (stereo unspecified) | 6.54
11 | CCCCc1oc2ccccc2c1C(=O)c1ccc(-c2ccc(O)cc2)cc1 | 8.40
12 | O=C(O)[C@H](Cc1ccccc1)Oc1ccc(-c2ccc(-c3c(Cc4ccccc4)sc4ccccc34)cc2)cc1-c1ccc(Cl)cc1 | 7.28
13 | Oc1ccc(-c2ccc(-c3c(Cc4ccccc4)oc4ccccc34)cc2)cc1Br | 6.56
14 | CCCCc1oc2ccccc2c1C(O)c1ccc2ccc(OCn3cnnn3)c(Br)c2c1 (stereo unspecified) | 6.04
15 | Oc1ccc(-c2ccc(-c3coc4ccccc34)cc2)cc1 | 7.70
16 | O=C(O)[C@H](Cc1ccccc1)Oc1ccc(-c2ccc(-c3c(Cc4ccc(F)cc4)oc4ccccc34)cc2)cc1 | 6.22
17 | COC(=O)[C@H](Cc1ccccc1)Oc1ccc(-c2ccc(-c3c(Cc4ccccc4)oc4ccccc34)cc2)cc1 | 6.23
18 | Cc1oc(-c2ccc(C(F)(F)F)cc2)nc1-c1ccc2c(Br)c(OC(Cc3ccccc3)C(=O)O)ccc2c1 (stereo unspecified) | 6.72
19 | CCCCc1oc2ccccc2c1C(O)c1ccc2cc(O)ccc2c1 (stereo unspecified) | 6.04
20 | Oc1c(Br)cc(-c2ccc(-c3c(Cc4ccccc4)oc4ccccc34)cc2)cc1Br | 6.32
21 | Cc1oc(-c2ccc(C(F)(F)F)cc2)nc1-c1cccc(-c2ccc(OCC(=O)O)cc2)c1 | 7.20
22 | Cc1oc(-c2ccc(C(F)(F)F)cc2)nc1-c1cccc(-c2ccc(O)cc2)c1 | 8.00
23 | O=C(O)[C@@H](Cc1ccccc1)Oc1ccc(-c2ccc(-c3nc4cccnc4n3Cc3ccccc3)cc2)cc1 | 6.67
24 | CCCCc1oc2ccccc2c1Cc1ccc2ccc(O)cc2c1 | 6.11
25 | O=C(O)[C@@H](Cc1ccccc1)Oc1ccc(-c2ccc(-c3nc4ccccc4n3Cc3ccccc3)cc2)cc1 | 6.36
26 | O=C(O)C(Cc1ccccc1)Oc1ccc(-c2ccc(-c3c(Br)oc4ccccc34)cc2)cc1 (stereo unspecified) | 6.39
